Measured values from patent US11352607B2, “Genomic engineering of pluripotent cells” (Fate Therapeutics, Inc., priority 2015, dated 2022).

Key:
[1] = system: CAG-C38 iCasp9 iPSC clone with sr39TK at H11 locus; experiment: Dual suicide gene safe guard system: AP1903 and GCV treatment in vitro; assay type: cell-based, human; conditions: 10 nM AP1903 two days; 25 μg/mL GCV nine days
Excerpt: In addition to CAG-iCasp9 integrated into AAVS1 locus, CAG-sr39TK was integrated into H11 safe harbor in CAG-C38 clonal iPSC using targeted insertion method described herein.

iCasp9-integrated iPSCs = experiment: AP1903-induced cell death of iCasp9-targeted hiPSCs (7AAD staining, flow cytometry); assay type: cell-based, human; conditions: 24 hrs
Experimental: The sorted GFP (neg), GFP (low) and GFP (hi) populations were expanded, and then were subjected to AP1903 treatment (10 nM or 100 nM), or DMSO as control, for 24 hrs. The treated cells were harvested and stained with 7AAD and analyzed by flow cytometry. The 7AAD negative cells (presumably live cells) percentage were plotted for each treatment.
Expanded puro-resistant iPSCs were then subjected to AP1903 (or DMSO control) treatment for 24 hrs. The treated cells were harvested and stained with 7AAD and analyzed by flow cytometry. The 7AAD negative cells, i.e., live cells, percentage were plotted for each treatment.

293T cells = experiment: AP1903-induced cell death of iCasp9-targeted 293T cells (7AAD); assay type: cell-based; conditions: 10 nM or 120 nM, 24 hrs; 293T cells with CMV-driven iCasp9 at AAVS1
Excerpt: The chemical inducer of dimerization (CID; AP1903) was purchased from Medchemexpress (Monmouth Junction, N.J.). Twenty-four hours after CID exposure, the cells were harvested and stained with 7-amino actinomycin D (7-AAD) according to the manufacturer's instruction (BD Biosciences). The percentage of 7-AAD positive cells were quantified as dead cells by flow cytometry (Guava, EMD Millipore, Billerica, Mass.) and analyzed with flowjo software.
A donor construct encompassing CMV-driven iCasp9 (AAVS1-G1.0) was designed to target the AAVS1 locus (FIG. 1A) and to integrate the Casp9 suicide gene to 293T cells. The donor construct also comprise GFP and puromycin genes, the expression of which are driven by AAVS1 endogenous promoter once the targeted insertion takes place (FIG. 1A). 293T cells were transfected with ZFNs specific to AAVS1 locus and the donor construct AAVS1-G1.0. Three days after transfection, the puromycin selection was started and continued for 12 days. The puro-selected population was analyzed by flow cytometry for GFP expression, and a range of GFP expression levels were observed. It was observed that about 82% of the puro-selected cell population expressed GFP (FIG. 1B). […] The treated cells were then harvested and stained with 7AAD, which selectively stains membrane-compromised dying cells, and analyzed by flow cytometry. […]

| Compound | inducible killing of CAG-C38 iCasp9 clone with sr39TK at H11 [1] | cell death mediated by AP1903 (iCasp9-integrated iPSCs; 10 nM or 100 nM, hiPSCs with CMV-driven iCasp9, GFP (neg), GFP (low), GFP (hi) populations) | cell death mediated by AP1903 (iCasp9-integrated iPSCs; hiPSCs with iCasp9 under endogenous AAVS1 promoter) | cell death post AP1903 treatment (293T cells) |
| --- | --- | --- | --- | --- |
| Nc1nc(O)c2ncn(COC(CO)CO)c2n1 [GCV, Ganciclovir] | expanded GCV-refractory cells | – | – | – |
| CC[C@H](C(=O)N1CCCC[C@H]1C(=O)O[C@H](CCc1ccc(OC)c(OC)c1)c1cccc(OCC(=O)NCCNC(=O)COc2cccc([C@@H](CCc3ccc(OC)c(OC)c3)OC(=O)[C@@H]3CCCCN3C(=O)[C@@H](CC)c3cc(OC)c(OC)c(OC)c3)c2)c1)c1cc(OC)c(OC)c(OC)c1 [AP1903] | inducible killing of most cells but rare cells remained | not detected | not detected | Significant cell death was detected |
